Tested on: PC-9
Test: Induction of apoptosis in human PC-9 cells expressing EGFR L858R/T790M/C797S mutant assessed as viable cells at 1 uM incubated for 48 hrs by Annexin V-FITC/PI staining based flow cytometric analysis (reference value: 98.9 %)
Format: functional
Conditions: not given

Compound	Activity
C=CC(=O)Nc1cc(Nc2nccc(-c3cn(C)c4ccccc34)n2)c(OC)cc1N(C)CCN(C)C [OSIMERTINIB]	89%

Tested on: PC-9
Test: Induction of apoptosis in human PC-9 cells expressing EGFR L858R/T790M/C797S mutant assessed as early apoptotic cells at 1 uM incubated for 48 hrs by Annexin V-FITC/PI staining based flow cytometric analysis (reference value: 0.210 %)
Format: functional
Conditions: not given

Compound	Activity
C=CC(=O)Nc1cc(Nc2nccc(-c3cn(C)c4ccccc34)n2)c(OC)cc1N(C)CCN(C)C [OSIMERTINIB]	4.73%

Tested on: PC-9
Test: Induction of apoptosis in human PC-9 cells expressing EGFR L858R/T790M/C797S mutant assessed as late apoptotic cells at 1 uM incubated for 48 hrs by Annexin V-FITC/PI staining based flow cytometric analysis (reference value: 0.360 %)
Format: functional
Conditions: not given

Compound	Activity
C=CC(=O)Nc1cc(Nc2nccc(-c3cn(C)c4ccccc34)n2)c(OC)cc1N(C)CCN(C)C [OSIMERTINIB]	5.56%

Tested on: PC-9
Test: Induction of apoptosis in human PC-9 cells expressing EGFR L858R/T790M/C797S mutant assessed as necrotic cells at 1 uM incubated for 48 hrs by Annexin V-FITC/PI staining based flow cytometric analysis (reference value: 0.540 %)
Format: functional
Conditions: not given

Compound	Activity
C=CC(=O)Nc1cc(Nc2nccc(-c3cn(C)c4ccccc34)n2)c(OC)cc1N(C)CCN(C)C [OSIMERTINIB]	0.67%

Tested on: PC-9
Test: Induction of apoptosis in human PC-9 cells expressing EGFR Del19/T790M/C797S mutant assessed as viable cells at 1 uM incubated for 48 hrs by Annexin V-FITC/PI staining based flow cytometric analysis (reference value: 99.8 %)
Format: functional
Conditions: not given

Compound	Activity
C=CC(=O)Nc1cc(Nc2nccc(-c3cn(C)c4ccccc34)n2)c(OC)cc1N(C)CCN(C)C [OSIMERTINIB]	85.5%

Tested on: PC-9
Test: Induction of apoptosis in human PC-9 cells expressing EGFR Del19/T790M/C797S mutant assessed as early apoptotic cells at 1 uM incubated for 48 hrs by Annexin V-FITC/PI staining based flow cytometric analysis (reference value: 0.050 %)
Format: functional
Conditions: not given

Compound	Activity
C=CC(=O)Nc1cc(Nc2nccc(-c3cn(C)c4ccccc34)n2)c(OC)cc1N(C)CCN(C)C [OSIMERTINIB]	3.39%

Tested on: PC-9
Test: Induction of apoptosis in human PC-9 cells expressing EGFR Del19/T790M/C797S mutant assessed as late apoptotic cells at 1 uM incubated for 48 hrs by Annexin V-FITC/PI staining based flow cytometric analysis (reference value: 0.040 %)
Format: functional
Conditions: not given

Compound	Activity
C=CC(=O)Nc1cc(Nc2nccc(-c3cn(C)c4ccccc34)n2)c(OC)cc1N(C)CCN(C)C [OSIMERTINIB]	6.39%

Tested on: PC-9
Test: Induction of apoptosis in human PC-9 cells expressing EGFR Del19/T790M/C797S mutant assessed as necrotic cells at 1 uM incubated for 48 hrs by Annexin V-FITC/PI staining based flow cytometric analysis (reference value: 0.090 %)
Format: functional
Conditions: not given

Compound	Activity
C=CC(=O)Nc1cc(Nc2nccc(-c3cn(C)c4ccccc34)n2)c(OC)cc1N(C)CCN(C)C [OSIMERTINIB]	4.73%

Tested on: PC-9
Test: Antitumor activity against human PC-9 cells expressing EGFR L858R/T790M/C797S mutant xenografted in BALB/c nude mouse assessed as tumor growth inhibition at 40 mg/kg, po administered for 18 days relative to control
Format: functional
Conditions: time 18 day

Compound	TGI
C=CC(=O)Nc1cc(Nc2nccc(-c3cn(C)c4ccccc34)n2)c(OC)cc1N(C)CCN(C)C [OSIMERTINIB]	30.9%

Tested on: PC-9
Test: cells
Conditions: Homo sapiens, PC-9, 72 h
Description: Cytotoxicity against human PC-9 cells expressing EGFR L858R/T790M/C797S mutant assessed as inhibition of cell proliferation incubated for 72 hrs by CCK8 assay

Compound	IC50
C=CC(=O)Nc1cc(Nc2ncc(F)c(-c3ccc4cc(C(=O)N(C)C)n(C(C)C)c4c3)n2)ccc1N1CCN(C)CC1	2240 nM
C=CC(=O)Nc1cc(Nc2ncc(F)c(-c3ccc4cc(C(=O)NC)n(C(C)C)c4c3)n2)c(OC)cc1N1CCN(C)CC1	1110 nM
C=CC(=O)Nc1cc(Nc2ncc(F)c(-c3ccc4cc(C(=O)N(C)C)n(C(C)C)c4c3)n2)ccc1N1CCN(C(C)C)CC1	380 nM

Second part, the compound after the results:

IC50	Compound
138 nM	C=CC(=O)Nc1cc(Nc2ncc(F)c(-c3ccc4cc(C(=O)NC)n(C(C)C)c4c3)n2)ccc1N1CCN(C(C)C)CC1
200 nM	C=CC(=O)Nc1cc(Nc2ncc(F)c(-c3ccc4cc(C(=O)NC)n(C(C)C)c4c3)n2)c(OC)cc1N1CCN(C(C)C)CC1
74 nM	C=CC(=O)Nc1cc(Nc2ncc(F)c(-c3ccc4cc(C(=O)NC)n(C(C)C)c4c3)n2)ccc1N(C)CCN(C)C

Tested on: PC-9
Test: cells
Conditions: Homo sapiens, PC-9, 72 h
Remark: another data set of the same source
Description: Cytotoxicity against human PC-9 cells expressing EGFR Del19/T790M/C797S mutant assessed as inhibition of cell proliferation incubated for 72 hrs by CCK8 assay

Compound	IC50
C=CC(=O)Nc1cc(Nc2nccc(-c3cn(C)c4ccccc34)n2)c(OC)cc1N(C)CCN(C)C [OSIMERTINIB]	2790 nM
C=CC(=O)Nc1cc(Nc2ncc(F)c(-c3ccc4cc(C(=O)N(C)C)n(C(C)C)c4c3)n2)ccc1N1CCN(C)CC1	1960 nM
C=CC(=O)Nc1cc(Nc2ncc(F)c(-c3ccc4cc(C(=O)NC)n(C(C)C)c4c3)n2)c(OC)cc1N1CCN(C)CC1	2190 nM
C=CC(=O)Nc1cc(Nc2ncc(F)c(-c3ccc4cc(C(=O)N(C)C)n(C(C)C)c4c3)n2)ccc1N1CCN(C(C)C)CC1	251 nM

Now from value to compound:

IC50	Compound
258 nM	C=CC(=O)Nc1cc(Nc2ncc(F)c(-c3ccc4cc(C(=O)NC)n(C(C)C)c4c3)n2)ccc1N1CCN(C(C)C)CC1
2280 nM	C=CC(=O)Nc1cc(Nc2ncc(F)c(-c3ccc4cc(C(=O)NC)n(C(C)C)c4c3)n2)c(OC)cc1N1CCN(C(C)C)CC1
48 nM	C=CC(=O)Nc1cc(Nc2ncc(F)c(-c3ccc4cc(C(=O)NC)n(C(C)C)c4c3)n2)ccc1N(C)CCN(C)C

Tested on: NCI-H1975
Test: cells
Conditions: Homo sapiens, NCI-H1975, 72 h
Description: Cytotoxicity against human NCI-H1975 cells expressing EGFR L858R/T790M mutant assessed as inhibition of cell proliferation incubated for 72 hrs by CCK8 assay

Compound	IC50
C=CC(=O)Nc1cc(Nc2ncc(F)c(-c3ccc4cc(C(=O)N(C)C)n(C(C)C)c4c3)n2)ccc1N1CCN(C)CC1	1180 nM
C=CC(=O)Nc1cc(Nc2ncc(F)c(-c3ccc4cc(C(=O)NC)n(C(C)C)c4c3)n2)c(OC)cc1N1CCN(C)CC1	1160 nM
C=CC(=O)Nc1cc(Nc2ncc(F)c(-c3ccc4cc(C(=O)N(C)C)n(C(C)C)c4c3)n2)ccc1N1CCN(C(C)C)CC1	468 nM

Now from value to compound:

IC50	Compound
150 nM	C=CC(=O)Nc1cc(Nc2ncc(F)c(-c3ccc4cc(C(=O)NC)n(C(C)C)c4c3)n2)ccc1N1CCN(C(C)C)CC1
474 nM	C=CC(=O)Nc1cc(Nc2ncc(F)c(-c3ccc4cc(C(=O)NC)n(C(C)C)c4c3)n2)c(OC)cc1N1CCN(C(C)C)CC1
44 nM	C=CC(=O)Nc1cc(Nc2ncc(F)c(-c3ccc4cc(C(=O)NC)n(C(C)C)c4c3)n2)ccc1N(C)CCN(C)C

Tested on: PC-9
Test: cells
Conditions: Homo sapiens, PC-9, 72 h
Remark: another data set of the same source
Description: Cytotoxicity against human PC-9 cells expressing EGFR Del19 mutant assessed as inhibition of cell proliferation incubated for 72 hrs by CCK8 assay

Compound	IC50
C=CC(=O)Nc1cc(Nc2nccc(-c3cn(C)c4ccccc34)n2)c(OC)cc1N(C)CCN(C)C [OSIMERTINIB]	15 nM
C=CC(=O)Nc1cc(Nc2ncc(F)c(-c3ccc4cc(C(=O)N(C)C)n(C(C)C)c4c3)n2)ccc1N1CCN(C)CC1	1980 nM
C=CC(=O)Nc1cc(Nc2ncc(F)c(-c3ccc4cc(C(=O)NC)n(C(C)C)c4c3)n2)c(OC)cc1N1CCN(C)CC1	2090 nM
C=CC(=O)Nc1cc(Nc2ncc(F)c(-c3ccc4cc(C(=O)N(C)C)n(C(C)C)c4c3)n2)ccc1N1CCN(C(C)C)CC1	122 nM

Now from value to compound:

IC50	Compound
147 nM	C=CC(=O)Nc1cc(Nc2ncc(F)c(-c3ccc4cc(C(=O)NC)n(C(C)C)c4c3)n2)ccc1N1CCN(C(C)C)CC1
1030 nM	C=CC(=O)Nc1cc(Nc2ncc(F)c(-c3ccc4cc(C(=O)NC)n(C(C)C)c4c3)n2)c(OC)cc1N1CCN(C(C)C)CC1
53 nM	C=CC(=O)Nc1cc(Nc2ncc(F)c(-c3ccc4cc(C(=O)NC)n(C(C)C)c4c3)n2)ccc1N(C)CCN(C)C

Tested on: HCC827
Test: cells
Conditions: Homo sapiens, HCC827, 72 h
Description: Cytotoxicity against human HCC827 cells expressing EGFR Del19 mutant assessed as inhibition of cell proliferation incubated for 72 hrs by CCK8 assay

Compound	IC50
C=CC(=O)Nc1cc(Nc2nccc(-c3cn(C)c4ccccc34)n2)c(OC)cc1N(C)CCN(C)C [OSIMERTINIB]	16 nM
C=CC(=O)Nc1cc(Nc2ncc(F)c(-c3ccc4cc(C(=O)N(C)C)n(C(C)C)c4c3)n2)ccc1N1CCN(C)CC1	1290 nM
C=CC(=O)Nc1cc(Nc2ncc(F)c(-c3ccc4cc(C(=O)NC)n(C(C)C)c4c3)n2)c(OC)cc1N1CCN(C)CC1	1120 nM
C=CC(=O)Nc1cc(Nc2ncc(F)c(-c3ccc4cc(C(=O)N(C)C)n(C(C)C)c4c3)n2)ccc1N1CCN(C(C)C)CC1	692 nM

Other lines, results leading:

IC50	Compound
103 nM	C=CC(=O)Nc1cc(Nc2ncc(F)c(-c3ccc4cc(C(=O)NC)n(C(C)C)c4c3)n2)ccc1N1CCN(C(C)C)CC1
2180 nM	C=CC(=O)Nc1cc(Nc2ncc(F)c(-c3ccc4cc(C(=O)NC)n(C(C)C)c4c3)n2)c(OC)cc1N1CCN(C(C)C)CC1
385 nM	C=CC(=O)Nc1cc(Nc2ncc(F)c(-c3ccc4cc(C(=O)NC)n(C(C)C)c4c3)n2)ccc1N(C)CCN(C)C

Tested on: A-431
Test: cells
Conditions: Homo sapiens, A-431, 72 h
Description: Cytotoxicity against human A-431 cells assessed as inhibition of cell proliferation incubated for 72 hrs by CCK8 assay

Compound	IC50
C=CC(=O)Nc1cc(Nc2ncc(F)c(-c3ccc4cc(C(=O)N(C)C)n(C(C)C)c4c3)n2)ccc1N1CCN(C)CC1	4130 nM
C=CC(=O)Nc1cc(Nc2ncc(F)c(-c3ccc4cc(C(=O)NC)n(C(C)C)c4c3)n2)c(OC)cc1N1CCN(C)CC1	> 10000 nM
C=CC(=O)Nc1cc(Nc2ncc(F)c(-c3ccc4cc(C(=O)N(C)C)n(C(C)C)c4c3)n2)ccc1N1CCN(C(C)C)CC1	441 nM

Next, values leading:

IC50	Compound
46 nM	C=CC(=O)Nc1cc(Nc2ncc(F)c(-c3ccc4cc(C(=O)NC)n(C(C)C)c4c3)n2)ccc1N1CCN(C(C)C)CC1
4920 nM	C=CC(=O)Nc1cc(Nc2ncc(F)c(-c3ccc4cc(C(=O)NC)n(C(C)C)c4c3)n2)c(OC)cc1N1CCN(C(C)C)CC1
1020 nM	C=CC(=O)Nc1cc(Nc2ncc(F)c(-c3ccc4cc(C(=O)NC)n(C(C)C)c4c3)n2)ccc1N(C)CCN(C)C

Tested on: MCF7
Test: cells
Conditions: Homo sapiens, MCF7, 72 h
Description: Cytotoxicity against human MCF7 cells assessed as inhibition of cell proliferation incubated for 72 hrs by CCK8 assay

Compound	IC50
C=CC(=O)Nc1cc(Nc2nccc(-c3cn(C)c4ccccc34)n2)c(OC)cc1N(C)CCN(C)C [OSIMERTINIB]	3520 nM
C=CC(=O)Nc1cc(Nc2ncc(F)c(-c3ccc4cc(C(=O)N(C)C)n(C(C)C)c4c3)n2)ccc1N1CCN(C)CC1	4040 nM
C=CC(=O)Nc1cc(Nc2ncc(F)c(-c3ccc4cc(C(=O)NC)n(C(C)C)c4c3)n2)c(OC)cc1N1CCN(C)CC1	> 10000 nM
C=CC(=O)Nc1cc(Nc2ncc(F)c(-c3ccc4cc(C(=O)N(C)C)n(C(C)C)c4c3)n2)ccc1N1CCN(C(C)C)CC1	875 nM

Second part, the compound after the results:

IC50	Compound
459 nM	C=CC(=O)Nc1cc(Nc2ncc(F)c(-c3ccc4cc(C(=O)NC)n(C(C)C)c4c3)n2)ccc1N1CCN(C(C)C)CC1
3840 nM	C=CC(=O)Nc1cc(Nc2ncc(F)c(-c3ccc4cc(C(=O)NC)n(C(C)C)c4c3)n2)c(OC)cc1N1CCN(C(C)C)CC1
159 nM	C=CC(=O)Nc1cc(Nc2ncc(F)c(-c3ccc4cc(C(=O)NC)n(C(C)C)c4c3)n2)ccc1N(C)CCN(C)C
